These results are taken from patent US20200147149A1, “COMPOSITIONS AND METHODS FOR THE MODULATION OF GUT SENSORY CELLS” (Duke University, priority 2017, published 2020).

For experiment [1], the system named is vagus nerve. The experiment can be described thus: Vagus nerve recording during intraluminal (duodenal) nutrient or CCK perfusion. The format is in vivo, mouse. Particulars: for time to maximum peak firing rate after the onset of the stimulus: CCK 870 nM or sucrose 300 mM intraluminal, FIG. 30C. How it is done:
(§1) Wild-type control (n=5-9), CckCRE_ChR2-tdTomato (n=6), CckCRE_Halorhodopsin-YFP (n=5), and Vglut1CRE_ChR2-YFP (n=6) mice were used for vagal recordings. Mice were anesthetized with 3 mg/g-mouse urethane 1 hour before surgery then with 0.5-1% isoflurane. A section of neck skin was removed between the jaw and clavicle. The thyroid was reflected bilaterally, and the carotid bundle was exposed using coarse dissection. The carotid nerve was separated from the vagus nerve using a curved blunt probe. Two platinum iridium wires (0.001″ diameter, PTFE coated, 10% Ir 90% Pt; Medwire by Sigmund Cohn Corp) were looped around the vagus nerve for recording. Mineral oil was used to insulate the vagus nerve from surrounding tissue. The small intestine was exposed by removing a section of skin and peritoneum. A 20 gauge gavage needle was surgically inserted through the stomach wall and into the duodenum. The gavage needle was sutured in place beyond the pyloric sphincter. Saline and stimulant tubes were connected to the gavage needle. For optogenetic experiments, a fiber optic cable (FT020, ThorLabs) was threaded through the gavage needle into the lumen of the duodenum. A perfusion exit incision was made 10 cm distal to the pyloric sphincter. During each recording, PBS was constantly perfused through the duodenum using a peristaltic pump (Cole-Parmer) at the lowest setting for a flow rate of ˜400 uL PBS per minute. Stimulation conditions were applied after recording 2 minutes of baseline activity. During whole nutrient stimulation conditions, PBS perfusion was continuous and 200 μL of ENSURE® was perfused through the second tube for 1 minute using a syringe pump. […] During CCK stimulation conditions, PBS perfusion was continuous, and 200 μL of 2.9 μM CCK octapeptide-sulfated (BaChem) was perfused through the second tube for 1 minute using a syringe pump (Fusion 200, Chemyx) for a final concentration of ˜870 nM CCK in PBS (10 μg/kg dose). […] Final stimulant concentrations were determined using the ratio of dilution and confirmed by osmolarity testing (Model 3320 Osmometer, Advanced Instruments Inc.). During 473 nm laser stimulation conditions, PBS perfusion was continuous, and the laser was pulsed for 1 minute at 40 Hz, 4 volts peak voltage, 20% duty cycle (473 nm, 80 mW laser, RGBlase).
Extracellular voltage was recorded from a pair of platinum iridium wires as described above. A differential amplifier and bandpass filter (1000× gain, 300 Hz-5 kHz bandpass filter; A-M Systems LLC) was used and the signal was processed using a data acquisition board and software (20 kHz sampling rate; Signal Express, National Instruments Corp). The raw data was analyzed using a spike sorting algorithm (MATLAB by MathWorks). Spikes were detected using simple threshold detection based on RMS noise. The firing rate was calculated using a Gaussian kernel smoothing algorithm (200-ms time scale).
Stimulation response was quantified as the maximum firing rate after stimulation (stimulant conditions) or during recording (baseline). Each trial serves as its own control by normalizing the maximum firing rate to the average baseline firing rate (defined as the first two minutes of recording, prior to stimulation onset). Mice were excluded from analysis if no sucrose response was present throughout recording. Maximum firing rate was analyzed across genotype, stimulation condition, and their interaction term by ANOVA, followed by HSD post hoc testing (iMP by SAS Institute).

In experiment [2] the test system is iGluSnFR-HEK cells. The experiment in a line: iGluSnFR-HEK cells cultured alone, multiphoton imaging. The experiment is classed as cell-based. Particulars: glutamate 100 μM. How it is done: HEK 293/17 cells (ATCC CRL-11268) were maintained in DMEM (Gibco 11965) supplemented with 10% FBS (Corning 35-010-CV), Glutamax, and non-essential amino acids (both Gibco). Cells were transfected with 1 ug plasmid pCMV(MinDis) iGluSnFR (Addgene 41732) using 1 ul Lipofectamine 2000 in Optimem (Gibco) in 24-well plates.
The 5.2 Kb iGluSnFR (pCMV(MinDis).iGluSnFR was a gift from Loren Looger; Addgene plasmid #41732) was moved to the zeocin resistant backbone of Addgene #51694 (DRH296: FCK-Optopatch2 was a gift from Adam Cohen) as a NdeI+XhoI fragment. The resulting plasmid (pMEK8) was transfected into HEK 293/17 cells (ATCC CRL-11268) using 1 μl Lipofectamine 2000/ug DNA. Cells were maintained in DMEM (Gibco 11965) supplemented with 10% FBS (Corning 35-010-CV), Glutamax, non-essential amino acids (both Gibco) and 3 μl/ml zeocin ([…], Invitrogen).
CckCRE_tdTomato enteroendocrine cells were isolated as described above. Isolated cells were mixed with iGluSnFR-HEK cells at a ratio of 10:1, then plated on 1% Matrigel coated coverslips. Control iGluSnFR-HEK cells were plated alone. Cells were incubated for 12-18 hours before imaging. Coverslips were imaged using a multiphoton microscopy system (Bruker Ultima IV with a Chameleon Vision II tunable laser). Imaging frames were captured at 1.876 fps, using 920 nm light. Imaging series were analyzed using Fiji (ImageJ), and cell traces were plotted with Excel.

Experiment [3] relates to ionotropic glutamate receptor. The experiment can be described thus: Patch-clamp of nodose neurons co-cultured with CckCRE_ChR2 cells, photo-stimulation and microperfusion of glutamate blocker. The experiment is classed as cell-based, mouse. To be noted: kynurenic acid 3 mM, n=4 pairs. How it is done: The small intestines of CckGFP and CckCRE_ChR2-tdTomato mice were dissected and flushed twice with cold PBS. The intestine was cut open lengthwise and cut again into ˜1 cm pieces. Tissue pieces were incubated with 3 mM EDTA at 4° C. for 15 minutes then at 37° C. for 15 minutes. New cold PBS was added and villi and crypts were mechanically detached. Villi and crypts were spun down and further digested in Collagenase and Dispase. Cells were spun down and re-suspended in L-15 media with 5% FBS and DNase to prevent cell clumping. Cells were passed through a 70 μm then 40 μm cell strainer to isolate single cells. Then cells were sorted using Fluorescence Activated Cell sorting (BD FACSAria) selecting for GFP fluorescence cells. […]
Enteroendocrine cells and nodose neurons were co-cultured as described above. […] CCK-producing enteroendocrine cells were identified by GFP expression and neurons by their morphology and lack of fluorescence. […] At the resting membrane potential, cell properties such as input resistance, and spike threshold were determined using 200 ms steps from −40 pA to 100 pA in 20 pA increment. After that, baseline neuron activity was recorded in current-clamp or voltage-clamp for 5 min before exposure to glucose (20 mM) for 30-60 sec, followed by a wash with no glucose-containing extracellular solution. […] EPSC responses were recorded for 1 second after light stimulation. […]
Background: In patch-clamp work, channel activity is measured electrically.

For experiment [4], the system named is glutamate receptor. The experiment can be described thus: Antagonist studies: glutamate receptor antagonists on vagal nerve firing rate response to sucrose or 473 nm laser. The experiment is classed as in vivo, mouse. Particulars: sucrose-300 mM; for time to peak (speed) of vagal response to sucrose: after KA/AP3 (150 μg/kg kynurenic acid + 1 mg/kg AP-3) or KA 150 μg/kg alone, sucrose alone 92.8 seconds, 1 mg/kg. The method, then: as §1, with “During 473 nm laser stimulation conditions, PBS perfusion was continuous, and the laser was pulsed for 1 minute at 40 Hz, 4 volts peak voltage, 20% duty cycle (473 nm, 80 mW laser, RGBlase).” left out
Extracellular voltage was recorded from a pair of platinum iridium wires as described above. […] The raw data was analyzed using a spike sorting algorithm (MATLAB by MathWorks). Spikes were detected using simple threshold detection based on RMS noise. The firing rate was calculated using a Gaussian kernel smoothing algorithm (200-ms time scale).
Stimulation response was quantified as the maximum firing rate after stimulation (stimulant conditions) or during recording (baseline). […] Maximum firing rate was analyzed across genotype, stimulation condition, and their interaction term by ANOVA, followed by HSD post hoc testing (iMP by SAS Institute).

Experiment [5] deals with intestinal CCK enteroendocrine cells. The experiment can be described thus: Calcium imaging (GCaMP6s) of enteroendocrine cells in CckCRE_tdTomato intestinal organoids. The experiment is classed as cell-based, mouse. Particulars: 10 mM sucrose; 40 mM KCl control; n=5. How it is done: For neurons, Phox2bCRE_GCaMP6s (n=3) nodose neurons were dissociated and plated. Nodose ganglia were dissected and digested in Liberase (Roche, 5401054001). Neurons were washed and filtered through a 70 μm cell strainer, then plated on 12 mm coverslips and placed in an incubator overnight. Cells were imaged 1-2 days later. Coverslips were placed in the recording chamber of a Zeiss Examiner Z1 and imaged with a Hamamatsu camera (Orca-flash4.0; C11440) using the Zeiss ZEN software package. For enteroendocrine cells, CckCRE_tdTomato organoids with transduced with ΔG-rabies-GCaMP6s. Organoids were imaged using multi photon microscopy 3-4 days after transduction. Imaging buffer (in mM: 140 NaCl, 5 KCl, 2 CaCl2, 2 MgCl2, 10 HEPES) was continuously perfused over the coverslips. […] Images were analyzed with Fiji ([…]), and cell traces were plotted with Matlab.

Experiment [6] has as its system vagus nerve. The experiment can be described thus: Vagus nerve recording during intraluminal (duodenal) nutrient or CCK perfusion. To be noted: sucrose 300 mM delivered intraperitoneally, wild-type mice. The experiment is classed as in vivo, mouse.

Entries after “also recorded” stand apart in the source; their conditions may differ.

For “CCK8: CCK octapeptide-sulfated (BaChem) [reference compound]”, the “time to maximum peak firing rate after the onset of the stimulus” value in experiment [1] (wild-type mice) is “about 180 s”. The “vagal firing rate (maximum)” value in experiment [1] (CCK8 870 nM (10 μg/kg) infused into the intestinal lumen, wild-type mice) is “increased the vagal firing rate to a similar maximum reached by sucrose”.
In the case of `N[C@@H](CCC(=O)O)C(=O)O` [glutamate, reference compound], in experiment [2], the “fluorescence response of iGluSnFR-HEK cells cultured alone” value was “did respond; also recorded: causes an increase in fluorescence”.
Regarding `O=C(O)c1cc(=O)c2ccccc2[nH]1` [kynurenic acid], the “effect on light (470/473 nm) evoked EPSCs in connected nodose neurons” value in experiment [3] is listed as “abolished”. Further, the “light evoked response after the blocker is washed away” value in experiment [3] (wash) is “recovered”. The “effect on maximum (peak) normalized vagal firing rate in response to sucrose” value in experiment [4] (KA/AP3 = 150 μg/kg kynurenic acid + 1 mg/kg AP-3, or KA 150 μg/kg alone, wild-type mice) was “do not”. In addition, the “time to peak (speed) of vagal response to sucrose” value in experiment [4] was “about 180 seconds”; in experiment [4] (listed as KA), 198 s. Moreover, the “effect on rapid (first 60 seconds) vagal response to sucrose” value in experiment [4] (kynurenic acid alone (150 μg/kg; dose range 1.5 μg/kg-1.5 mg/kg in FIG. 32), 1.5 mg/kg) is “suppressed; also recorded: attenuates rapid vagal response but not prolonged vagal response”.
As for `OC[C@H]1O[C@@](CO)(O[C@H]2O[C@H](CO)[C@@H](O)[C@H](O)[C@H]2O)[C@@H](O)[C@@H]1O` [sucrose], in experiment [5], the “magnitude of the sugar response as percent fluorescence of the KCl response” value is reported as 72.4±10.6%. Besides, the vagal firing rate result is recorded as “not observed; also recorded: did not increase vagal firing rate” in experiment [6] and “significantly increased; also recorded: stimulate” in experiment [1] (sucrose 100 mM-300 mM (300 mM in figures) perfused intraluminally, wild-type mice, vs baseline). Besides, in experiment [1] (wild-type mice), the “time to maximum peak firing rate after the onset of the stimulus” value is “about 60 s”. Further, the vagal response entry in experiment [1] (luminal sucrose 300 mM, CckCRE_Halo-YFP mice, no laser) was “elicited a vagal response”. Further, the “time to peak of vagal response” value in experiment [1] (sucrose-300 mM without antagonist, wild-type mice, average, FIG. 25D) came to 92.8 s. Also, the vagal activity entry in experiment [1] (sucrose-300 mM, Vglut1CRE_ChR2 mice) is on record as “stimulate vagal activity”.
